{
  "source": "patent US20140249097A1",
  "about": "“Inhibition of HIF-1 activation for Anti-Tumor and Anti-Inflammatory responses” (priority 2010, published 2014)",
  "key": {"nitric oxide": {"tested_on": "nitric oxide", "assay": "Flow cytometry of intracellular nitric oxide (DAF-FM) in 4T1ODD-luc cells", "format": "cell-based, mouse", "settings": "10 μg/ml 1400W or 15 μM EGCG with 1 μg/ml doxorubicin, 48 hours", "method": "To detect intracellular nitric oxide levels, 1×10^6 4 T1ODD-luc cells were plated per 10-cm cell culture dish with 8 ml of cell culture medium. Doxorubicin (1 μg/ml and 5 μg/ml) or an equal volume of control solvent was added into the cell culture medium the next day and treatment continued for 48 hours. […] Equal amounts of solvent were added for the control group. To quantify intracellular nitric oxide, a single cell suspension was made after trypsinization. 2 ml of 5 uM nitric oxide-specific probe DAF-FM diacetate (4-amino-5-methylamino-2′,7′-difluorofluorescein diacetate) (Invitrogen) were incubated with each cell sample at room temperature in darkness for 30 minutes. The cells were washed with PBS and centrifuged to remove the excess DAF-FM diacetate probe. The cells were resuspended into 500 ul of phenol-free DMEM and incubated for another 20 minutes for complete intracellular deacetylation of the probe. The mean fluorescence intensity of the deacetylated DAF-FM reacted with nitric oxide was quantified by FACSCalibur flow cytometer in FITC channel (Becton Dickinson, Franklin Lakes, N.J., United States of America)."}, "iNOS": {"tested_on": "iNOS", "assay": "Western blotting of iNOS in 4T1ODD-luc cells", "format": "cell-based, mouse", "settings": "for inhibition of iNOS expression in doxorubicin-treated cells / doxorubicin-induced iNOS upregulation: with doxorubicin; for inhibition of iNOS expression in doxorubicin-treated cells: 24 h; for doxorubicin-induced iNOS upregulation: 48 h; for basal level of iNOS expression: without doxorubicin, 24 h and 48 h, 10 μg/ml 1400W or 15 μM EGCG", "method": "(§1) Cell nuclear proteins were extracted using the NucBuster protein extraction kit (Novagen, Gibbstown, N.J., United States of America). Total cell lysates or cell nuclear extractions were quantified using a protein assay reagent (Bio-Rad). Equal amounts of protein sample were separated by Bis-HCl gel (Bio-Rad) and transferred to a […] Immun-Blot PVDF membrane (Bio-Rad)."}, "STAT1": {"tested_on": "STAT1", "assay": "Western blotting of STAT1 and phospho-STAT1 in 4T1ODD-luc cells", "format": "cell-based, mouse", "settings": "48 hours post-treatment", "method": "as §1"}, "4T1ODD-luc cells": {"tested_on": "4T1ODD-luc cells", "assay": "Cell Titer-Glo cell viability assay", "settings": "10 μg/ml 1400W or 15 μM EGCG with 1 μg/ml doxorubicin, to day 3", "source_text": "Cell viability was quantified by Cell Titer-Glo luminescent cell viability assay (Promega, Madison, Wis., United States of America) daily until day 3. The daily cell viability was normalized to the initial cell viability on day 0 within each group."}, "HIF-1α [1]": {"tested_on": "HIF-1α", "format": "cell-based, murine"}, "C533S-ODD-luc": {"tested_on": "C533S-ODD-luc", "assay": "C533S-ODD-luc reporter in 4T1 cells in vitro", "format": "cell-based, murine"}, "HIF-1α [2]": {"tested_on": "HIF-1α", "assay": "Western blotting of HIF-1α in 4T1ODD-luc cells", "format": "cell-based, mouse", "settings": "4T1ODD-luc cells, post-treatment day 2", "method": "as §1"}, "HIF-1α [3]": {"tested_on": "HIF-1α", "assay": "Western blotting of HIF-1α in MCF-7 cells", "format": "cell-based, human", "settings": "MCF-7 cells, post-treatment day 3", "method": "as §1"}, "[4]": {"tested_on": "4T1 (murine mammary adenocarcinoma)", "assay": "Tumor growth delay, radiotherapy plus L-NAME, 4T1", "format": "in vivo, mice", "settings": "4T1 tumors, 3×6 Gy, L-NAME in drinking water", "source_text": "(§2) Female NIH Swiss nude mice, C57BL/6 mice were purchased from the National Cancer Institute (NCI; Fredrick, Md., United States of America). Mice with a genetic disruption of the inducible […] gene (C57BL/6 iNOS^−/−) were obtained from the Jackson Laboratory (Bar Harbor, Me., United States of America). Female BALB/c mice were obtained from Charles River Laboratories (Raleigh, N.C., United States of America). Animals were maintained and cared for in accordance with the Duke University Institutional Animal Care and Use Committee guidelines. For tumor implantation, 4T1 tumors were grown in nude mice or in syngeneic BALB/c mice, and B16F10 melanoma in syngeneic C57BL/6 or iNOS^−/− mice. About 5×10^5 wild type- or luciferase reporter gene-transfected tumor cells were injected subcutaneously (s.c.) into mice in 50 μl of PBS solution in the hind legs of ketamine/xylazine-anesthetized mice. When the tumors reached 6-8 mm in diameter, mice were randomly assigned to experimental groups. To image the luciferase activity, single dose of 6 Gy X-ray was given to the tumor on the right leg and this day was set as day 0. The luciferase activity was imaged everyday or every other day for ten days. For the tumor growth delay assay, radiotherapy was employed in its clinical mode: tumors were treated with 3 fractions of 6 Gy every other day from day 0."}, "B16F10 (murine melanoma)": {"tested_on": "B16F10 (murine melanoma)", "assay": "Tumor growth delay, radiotherapy plus L-NAME, B16F10", "format": "in vivo, mice", "settings": "B16F10 tumors, 3×6 Gy, L-NAME in drinking water", "source_text": "as §2"}, "tumor vasculature": {"tested_on": "tumor vasculature", "assay": "CD31 staining of tumor vasculature", "format": "in vivo, mice", "settings": "L-NAME in conjunction with radiotherapy, tumors excised day 10, 4T1 and B16F10", "method": "Vessel staining was performed on tumor cryoslices by using the VECTASTAIN® ABC and the NOVARED™ kits from Vector Laboratories (Burlingame, Calif., United States of America), according to the manufacturer's protocol. The primary anti-CD31 antibody (Santa Cruz Biotechnology, Santa Cruz, Calif.) was labeled with a secondary biotinylated anti-rabbit antibody (Jackson ImmunoResearch Labs, Inc.). Slices were counterstained using Harris' hematoxilin. Vascular density was determined by counting CD31-positive structures in 5 random fields per tumor."}},
  "note": "Like-named read-outs stand apart in the source and are kept apart here. Peptide text beside a SMILES is read from it. * marks the point of attachment. Cbz = O=C(OCc1ccccc1)*",
  "data": [
    {"smiles": "CC(=N)NCc1cccc(CN)c1", "note": "[1400W, N-(3-(aminomethyl)benzyl)acetamidine]", "values": [
      {"measurement": "doxorubicin-induced increase of intracellular NO", "setting": "nitric oxide", "result": "significantly suppressed the doxorubicin-induced increase of intracellular NO"},
      {"measurement": "inhibition of iNOS expression in doxorubicin-treated cells", "setting": "iNOS", "result": "not obvious"},
      {"measurement": "doxorubicin-induced iNOS upregulation", "setting": "iNOS", "result": "successfully suppressed the doxorubicin-induced iNOS upregulation"},
      {"measurement": "basal level of iNOS expression", "setting": "iNOS", "result": "suppressed the basal level of iNOS expression"},
      {"measurement": "doxorubicin-induced upregulation of STAT1 expression and activation", "setting": "STAT1", "result": "potently suppressed the doxorubicin-induced upregulation of STAT1 expression and activation"},
      {"measurement": "effect of combination on cytotoxicity of doxorubicin (cell viability)", "setting": "4T1ODD-luc cells", "result": "did not attenuate the cytotoxicity of doxorubicin"}
    ]},
    {"smiles": "[Cl-].[Cl-].[Co+2]", "note": "[CoCl2]", "values": [
      {"measurement": "luminescence arising from ODD-luc reporter gene expression", "setting": "HIF-1α [1]", "result": "rose significantly"},
      {"measurement": "C533S-ODD-luc induction", "setting": "C533S-ODD-luc", "result": "significant inductions, similar to wild-type"}
    ]},
    {"smiles": "O=C(O[C@@H]1Cc2c(O)cc(O)cc2O[C@@H]1c1cc(O)c(O)c(O)c1)c1cc(O)c(O)c(O)c1", "note": "[EGCG, epigallocatechin gallate]", "values": [
      {"measurement": "doxorubicin-induced normoxic HIF-1α accumulation", "setting": "HIF-1α [2]", "result": "successfully suppressed the doxorubicin-induced normoxic HIF-1α accumulation"},
      {"measurement": "doxorubicin-induced normoxic HIF-1α accumulation", "setting": "HIF-1α [3]", "result": "successfully suppressed the doxorubicin-induced normoxic HIF-1α accumulation"},
      {"measurement": "doxorubicin-induced increase of intracellular NO", "setting": "nitric oxide", "result": "significantly suppressed the doxorubicin-induced increase of intracellular NO"},
      {"measurement": "inhibition of iNOS expression in doxorubicin-treated cells", "setting": "iNOS", "result": "not obvious"},
      {"measurement": "doxorubicin-induced iNOS upregulation", "setting": "iNOS", "result": "successfully suppressed the doxorubicin-induced iNOS upregulation"},
      {"measurement": "basal level of iNOS expression", "setting": "iNOS", "result": "suppressed the basal level of iNOS expression"},
      {"measurement": "doxorubicin-induced upregulation of STAT1 expression and activation", "setting": "STAT1", "result": "potently suppressed the doxorubicin-induced upregulation of STAT1 expression and activation"},
      {"measurement": "effect of combination on cytotoxicity of doxorubicin (cell viability)", "setting": "4T1ODD-luc cells", "result": "did not attenuate the cytotoxicity of doxorubicin"}
    ]},
    {"smiles": "N[C@@H](CCC(=O)N[C@@H](CSN=O)C(=O)NCC(=O)O)C(=O)O", "note": "[GSNO, S-nitrosoglutathione]", "values": [
      {"measurement": "C533S-ODD-luc expression induced by GSNO", "setting": "C533S-ODD-luc; 4T1 cells, GSNO 1 mM", "result": "almost absent"}
    ]},
    {"smiles": "COC(=O)[C@@H](N)CCCNC(=N)N[N+](=O)[O-]", "note": "[L-NAME, Nω-nitro-L-arginine methyl ester]", "values": [
      {"measurement": "tumor growth delay, therapeutic efficacy of radiotherapy with L-NAME", "setting": "[4]", "result": "significantly enhanced the therapeutic efficacy of radiotherapy"},
      {"measurement": "tumor growth delay, therapeutic efficacy of radiotherapy with L-NAME", "setting": "B16F10 (murine melanoma)", "result": "significantly enhanced the therapeutic efficacy of radiotherapy"},
      {"measurement": "tumor vasculature (CD31+ vascular density)", "setting": "tumor vasculature", "result": "significantly reduced tumor vasculature"}
    ]},
    {"smiles": "CC(C)C[C@@H](C=O)NC(=O)[C@H](CC(C)C)NC(=O)[C@H](CC(C)C)NC(=O)OCc1ccccc1", "note": "[MG132] (Cbz-Leu-Leu-Leu-aldehyde)", "values": [
      {"measurement": "luminescence arising from ODD-luc reporter gene expression", "setting": "HIF-1α [1]; 4T1 cells, CoCl2 240 μM for 12 hrs, MG132 10 μM for 12 hrs, vs background", "result": "rose significantly"}
    ]},
    {"smiles": "CC1(C)N([O])C(c2ccc(C(=O)[O-])cc2)=[N+]([O-])C1(C)C.[K+]", "note": "[carboxy-PTIO, potassium 2-(4-carboxyphenyl)-4,4,5,5-tetramethylimidazoline-1-oxyl-3-oxide]", "values": [
      {"measurement": "effect on HIF-1α activation (ODD-luc) by GSNO", "setting": "HIF-1α [1]", "result": "effectively suppressed HIF-1α activation by GSNO"}
    ]}
  ]
}
